Measurements from PMC7616174, “Development of Novel 4-Arylpyridin-2-one and 6-Arylpyrimidin-4-one Positive Allosteric Modulators of the M1 Muscarinic Acetylcholine Receptor” (ChemMedChem, 2020).

Tests used:
M1 mAChR = target: T1, M1 mAChR (Homo sapiens, UniProt P11229); experiment: β-arrestin 2 recruitment assay (BRET); type: cell-based
T1 construct: expressed in transfected cells; host or cells: parental FlpIn CHO cells (transient, PEI)
T1 sequence (P11229 1-460): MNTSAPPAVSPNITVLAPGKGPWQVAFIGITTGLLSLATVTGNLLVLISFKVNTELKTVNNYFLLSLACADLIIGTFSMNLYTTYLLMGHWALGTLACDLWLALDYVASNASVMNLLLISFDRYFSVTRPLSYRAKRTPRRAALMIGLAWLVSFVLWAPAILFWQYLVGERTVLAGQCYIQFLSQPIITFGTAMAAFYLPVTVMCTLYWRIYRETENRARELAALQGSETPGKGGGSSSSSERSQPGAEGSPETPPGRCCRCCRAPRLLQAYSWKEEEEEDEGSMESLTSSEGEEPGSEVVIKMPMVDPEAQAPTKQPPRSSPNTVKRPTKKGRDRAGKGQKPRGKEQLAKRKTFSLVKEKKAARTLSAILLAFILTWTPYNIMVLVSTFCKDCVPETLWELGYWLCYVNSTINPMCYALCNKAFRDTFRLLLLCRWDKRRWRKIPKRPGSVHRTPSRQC
Description: (§1) The compounds were then fully characterised in two functional assays (Figure 2C and D); the Gq-coupled IP1 accumulation assay (Figure S2), which was used for the initial screening of the compounds, and a β-arrestin 2 recruitment assay (Figure S3). The operational efficacy (τB) values for the modulators and their functional cooperativity estimates with ACh (logαβACh) at both signalling pathways were estimated by applying an operational model of allosterism and agonism to the data [Eq. (3)],[16] and are listed in Table 5.
Parental FlpIn CHO cells were plated at 30000 cells/well of 96-well white Culture plates (Perkin Elmer Life Sciences) and transiently transfected with 10 ng/well of M1 Renilla luciferase (Rluc)-8 and 40 ng/well of YFP-β-arrestin 2 using linear polyethyleneimine (PEI/DNA ratio 6:1) diluted in 150 mM NaCl. DNA:PEI complexes were formed by 15 min incubation at room temperature then added to the cells and incubated at 37°C for 24 h prior to use. Cells were then washed and equilibrated in Hanks’ balanced salt solution for 1 h at 37°C. Coelenterazine h at a final concentration of 5 μM was added to each well, followed by addition of increasing concentrations of ACh in the absence or presence of increasing concentrations of each modulator. Lumines-cence and fluorescence signals were measured 5 min after agonist stimulation using the LUMIstar Omega plate reader (BMG LabTech, Offenburg, Germany). […] Data were then normalized to the maximum response to ACh.
(§2) Functional interaction studies between ACh and allosteric modulators in IP1 and β-arrestin 2 recruitment assays were analysed according to a three-parameter logistic equation or the following operational model of allosterism and agonism [Eq. (3)].[16] E=Basal+(Em−Basal)([A](KB+αβ[B])+τB[B]EC50)^n/EC50n(KB+[B])^n+([A](KB+αβ[B])+τB[B]EC50)^n where Em is the maximal possible system response, and Basal is the response in the absence of agonist. [A] and [B] are concentrations of orthosteric and allosteric ligands, respectively. KB is the equilibrium dissociation constant of allosteric ligand, and EC50 is the concentration of orthosteric agonist required to achieve half maximal response. α and β represent the magnitude of the allosteric effects on orthosteric ligand affinity and efficacy, respectively; τB is the efficacy of allosteric ligand, and n is the slope factor of the transducer function that links occupancy to response.

hM1 mAChR [1] = target: T2, hM1 mAChR (Homo sapiens, UniProt P11229); experiment: IP1 accumulation assay (ACh concentration-response curves in absence or presence of modulator); type: cell-based
T2 construct: expressed in transfected cells
T2 sequence (P11229 1-460): T1 sequence (P11229 1-460)
Description: Functional activity of the synthesized analogues as racemic mixtures was investigated in IP1 accumulation assays at the M1 mAChR, as described previously.[13–14] ACh concentration-response curves were generated in the absence or presence of a 1 and 10 μM concentration of each modulator. The change in baseline activity (Δbaseline) is an approximate measure of direct allosteric agonism (τB), whereas the pEC50 shift (ΔpEC50) is an approximate measure of functional cooperativity (αβ) of each modulator with ACh in the investigated signalling pathway. We aimed to identify modulators with various degrees of allosteric agonism and modulatory effects on ACh response, as these could generate distinct in vivo outcomes for applications in different conditions in the CNS or gastrointestinal (GI) tract.[[10g,h,j]]
as §1
FlpIn CHO cells stably expressing the hM1 mAChR were seeded at 25000 per well of 96-well transparent cell culture plates and grown overnight. […] Cells were then stimulated with increasing concentration of ACh in the absence or presence of increasing concentrations of each modulator for 1 h at 37°C. […] Seven μL of cell lysates were transferred into wells of 384-well Proxiplates (Perki-nElmer Life Sciences), and IP1 levels were measured using the IP-One assay kit (Cisbio, Codolet, France). […] The signal was expressed as the HTRF ratio, interpolated from the standard curve, and normalized to the maximum response to ACh.
Changes in both baseline and pEC50 were quantified by subtracting the estimates at each M1 PAM concentrations with the control values. Propagation of the error on baseline and potency values were determined as follows [Eq. (1)]: σΔ=σPAM2+σcont.2 where σΔ is the standard error of the mean (SEM) for the change in value, and σPAM and σcont. are the SEM from the three-parameter logistic equation analysis in presence or absence of M1 PAM, respectively.
as §2

hM1 mAChR [2] = target: T2, hM1 mAChR; experiment: Whole-cell [3H]NMS equilibrium competition radioligand binding; details: [3H]NMS binding
Description: To determine the affinity (pKB) of the allosteric modulators for the allosteric site, and their binding cooperativity with ACh (log αACh) at the M1 mAChR, whole cell equilibrium competition binding studies were performed, using [^3H]NMS to label the orthosteric site.
FlpIn Chinese hamster ovary (CHO) cells stably expressing the hM1 mAChR were grown in Dulbecco’s modified Eagle’s medium (DMEM) (Invitrogen, Carlsbad, CA) supplemented with 5% foetal bovine serum (FBS) (Thermo-Trace, Melbourne, Australia) and 300 μg/mL G418 (Invitrogen, Carlsbad, CA). The cells were plated at 50,000 cells per well of 96-well white clear bottom plates (Greiner Bio-one, Kremsmünster, Austria), and were grown overnight. The following day, cells were washed twice with Phosphate Buffered Saline (PBS), and incubated with increasing concentrations of ACh (Sigma) in the absence or presence of increasing concentrations of each modulator and 0.2 nM [^3H]NMS (PerkinElmer Life Sciences) in binding buffer (20 mM HEPES, 100 mM NaCl, 10 mM MgCl2, pH 7.4) for 5 h at room temperature. Nonspecific binding was determined using atropine at the final concentration of 10 μM. The assays were terminated by rapid removal of the unbound radioligand followed by two washes with 100 μL/well ice-cold 0.9% NaCl buffer. Radioactivity was determined by addition of 100 μL/well Ultima gold (PerkinElmer Life Sciences) and counting in a MicroBeta plate reader (PerkinElmer Life Sciences).
Binding interaction studies with allosteric ligands were fitted to the following allosteric ternary complex model [Eq. (2)][15] Y=Bmax|A|/[Λ]+[KAKB/α^′[B]+KB][1+[I]/K1+[B]/KB+α[I][B]/KIKB] where Bmax is the total number of receptors, [A], [B] and [I] denote the concentrations of radioligand, allosteric modulator, and orthosteric ligand, respectively; KA, KB and KI are their respective equilibrium dissociation constants. α’ and α are the affinity cooperativity factors between the allosteric ligand and radioligand or the allosteric modulator and ACh, respectively. Values of α or α’ > 1 denote positive cooperativity, values < 1 but > 0 denote negative cooperativity, and a value of 1 indicates neutral coopera-tivity.

[3] = IP1 accumulation, antilog, in parentheses

αβ (functional cooperativity with ACh) (M1 mAChR; antilog, in parentheses): 56
τB (intrinsic efficacy of the modulator) (M1 mAChR; antilog, in parentheses): 0.4
log τB (logarithm of intrinsic efficacy of the modulator) (M1 mAChR; operational model): –0.36±0.12
log αβ (logarithm of functional cooperativity between ACh and modulator) (M1 mAChR; operational model, pKB constrained to binding value): 1.75±0.11
ΔpEC50 [1 μM]: change in ACh pEC50 in presence of M1 PAM compared to control curve (hM1 mAChR [1]; 1 μM modulator, FlpIn CHO hM1 cells, mean ± SEM, 3 experiments): 0.96±0.18
activation at 1 µM (hM1 mAChR [1]; 1 μM modulator, FlpIn CHO hM1 cells, mean ± SEM, 3 experiments, read-out: Δbaseline [1 μM]: change in basal response in presence of M1 PAM compared to control curve): 38.5 ± 3.8%
ΔpEC50 [10 μM]: change in ACh pEC50 in presence of M1 PAM compared to control curve (hM1 mAChR [1]; 10 μM modulator, FlpIn CHO hM1 cells, mean ± SEM, 3 experiments): 1.50±0.32
activation at 10 µM (hM1 mAChR [1]; 10 μM modulator, FlpIn CHO hM1 cells, mean ± SEM, 3 experiments, read-out: Δbaseline [10 μM]: change in basal response in presence of M1 PAM compared to control curve): 78.6 ± 2.8%
αβ (functional cooperativity with ACh) (hM1 mAChR [1]; [3]): 112
τB (intrinsic efficacy of the modulator) (hM1 mAChR [1]; [3]): 3
log τB (logarithm of intrinsic efficacy of the modulator) (hM1 mAChR [1]; IP1 accumulation, operational model): 0.54±0.04
log αβ (logarithm of functional cooperativity between ACh and modulator) (hM1 mAChR [1]; IP1 accumulation, operational model, pKB constrained to binding value): 2.05±0.12
Kb (hM1 mAChR [2]; allosteric ternary complex model, mean ± SEM, read-out: pKB (negative logarithm of the allosteric modulator equilibrium dissociation constant) (converted)): 15.8 µM
α (binding cooperativity with ACh) (hM1 mAChR [2]; antilog, in parentheses): 151
log αACh (logarithm of binding cooperativity between ACh and modulator) (hM1 mAChR [2]; mean ± SEM): 2.18±0.19
SMILES: O=c1cc(-c2ccccc2OCc2ccc(-n3cccn3)nc2)ncn1C1CCCCC1O (stereo not drawn) [Compound 27b, 6-(2-((6-(1H-Pyrazol-1-yl)pyridin-3-yl)methoxy)phenyl)-3-(2-hydroxycyclohexyl)pyrimidin-4(3H)-one]
